Here are results for two compounds from US10154955B2, “Compositions including bauhinia, methods of making and using the same in skin anti-aging and other skin applications” (ACCESS BUSINESS GROUP INTERNATIONAL LLC, priority 2016, dated 2018).

In brackets after ≈: the same amount, converted by molar mass. Several values for one entry are separate records, joined by “and”; a condition that tells them apart may be missing. Equal values may be shown once.

Series [1] is described as follows: Cell toxicity-CTG in HepG2 cells. It is filed as cell-based. The conditions noted are these: human, FIG. 5. As to the method:
On Day 1 of the procedure, Hep G2 [HEPG2] cells were plated on 96-well cell culture plates. To do so, disk was trypsinized and the cell density was determined. The cell slurry was diluted to the required volume at a density of 625,000 cells/ml. 160 ul/well of the cell slurry was dispensed onto assay plates. (100,000 cells per well). The assay plates were incubated overnight at 37 degrees C., 5% CO2 under humidified conditions. On Day 2, the cells were treated with […] and Hydroquinone or Vitamin C as a reference. 200× compounds were prepared in 100% DMSO. Transfer 5 ul 200× compound was transferred to 95 ul completed medium (MEM with 10% FBS), and mixed 5 times. 20 ul 10× compound solution was transferred onto assay plates. The assay plates were incubated at 37 degrees C., 5% CO2 under humidified conditions.

The subject of series [2] is Hep G2 [HEPG2] cells. Description: Anti-carbonylation assay (protein carbonyl ELISA after H2O2 treatment). The conditions noted are these: 3 mM H2O2 4 hr, replicate values. It is filed as cell-based. The method, then: The purpose of this experiment was to test […] on anti-carbonylation assay using Hep G2 [HEPG2] (ATCC#HB-8065) cell line. The carbonylation process is related to protein degeneration and is similar to oxidation and glycation. On Day 1 of the procedure, Hep G2 [HEPG2] cells were plated on 96-well cell culture plates. To do so, disk was trypsinized and the cell density was determined. The cell slurry was diluted to the required volume at a density of 625,000 cells/ml. 160 ul/well of the cell slurry was dispensed onto assay plates. (100,000 cells per well). The assay plates were incubated overnight at 37 degrees C., 5% CO2 under humidified conditions. On Day 2, the cells were treated with […] and Hydroquinone or Vitamin C as a reference. 200× compounds were prepared in 100% DMSO. Transfer 5 ul 200× compound was transferred to 95 ul completed medium (MEM with 10% FBS), and mixed 5 times. 20 ul 10× compound solution was transferred onto assay plates. The assay plates were incubated at 37 degrees C., 5% CO2 under humidified conditions. Day 3 included treatment with H2O2. 30 mM H2O2 solution was prepared and 20 ul/well of H2O2 solution was dispensed onto assay plates (H2O2 final conc. 3 mM). The assay plates were incubated for 4 hr at 37 degrees C., 5% CO2 under humidified conditions. Following the incubation, the cell culture medium was discarded and cells once washed once with PBS. 60 ul PBS was added onto assay plate, frozen at -80° C. Frozen samples were recovered 3 times. […] The liquid supernatant was then transferred to compound plate. 5 ul of each cell lysis was obtained and the protein concentration was tested. The protein concentration was adjusted to 5 μg/ml with PBS and reduced BSA (total protein conc. 10 μg/ml), and mixed 5 times. 100 uL of the 5 ug/ml samples was then transferred onto the 96-well Protein Binding Plate, and incubated in 4° C. overnight. To perform ELISA assay on Day 5, the wells were washed 3 times with 250 μL PBS per well and excess wash solution removed. 100 μL of the 0.04 mg/ml DNPH Working Solution was added and the plates were incubated for 45 minutes at room temperature in the dark. The plates were then washed 5 times with 250 μL of PBS/Ethanol (1:1, v/v) with incubation on an orbital shaker for 5 minutes. Next, the plates were washed 2 times with 250 μL of PBS. 200 μL of Blocking Solution was added per well and the plates were incubated for 2 hours at room temperature on an orbital shaker, and then washed 3 times with 250 μL of 1× Wash Buffer with thorough aspiration between each wash. 100 μL anti-DNP antibody was added and the plates were incubated for 1 hour at room temperature on an orbital shaker. Next, the strip wells were washed 3 times (1× wash buffer), 100 μL of the diluted HRP conjugated secondary antibody was added to all wells and plates were incubated for 1 hour at room temperature on an orbital shaker. The strip wells were then washed 5 times (1× wash buffer). The Substrate Solution was warmed to room temperature and 100 μL of Substrate Solution was added to each well, 5 20 min. The enzyme reaction was stopped by adding 100 μL of Stop Solution to each well. […] Data Process included: • Signal=Sample 450 nm Signal-10 ug/ml Reduced BSA Signal • Protein Carbonyl Conc. (PCC)=(Signal-Y intercept)/Slope • % Inh=(Max PCC-Sample PCC)/(Max PCC-Min PCC)×100 • Max PCC was obtained from the cells treated with H2O2 • Min PCC was obtained from none treated cells • IC50 was calculated using GraphPad Prism V5.0 software

A word on the IC50: it is the concentration that gives 50% inhibition. The compound `Oc1ccc(O)cc1` [Hydroquinone] gave an IC50 in series [1] of 8.44 µg/mL (≈ 76.7 µM).
Broadly, the inhibition is how much of the control response was suppressed. Low values mean a response near the control, high ones a response far below the control. On to `O=C1O[C@H]([C@@H](O)CO)C(O)=C1O` [Vit. C, Vitamin C], for which the Carbonylation inhibition in series [2] (33 ug/ml) is 28.6%; in series [2] (100 ug/ml), 64.6%; in series [2] (300 ug/ml), 49.1% and 76.2%. The compound also came in with an inhibition at 33 µg/mL in series [2] (Homo sapiens, HepG2, 4 h, 33 ug/ml) of 33.5%. Further, in series [2] (Homo sapiens, HepG2, 4 h, 100 ug/ml), the inhibition at 100 µg/mL amounted to 46.1%.
